# Results as given in US20170339955A1, “Substituted N-(tetrazol-5-yl)- and N-(triazol-5-yl)arylcarboxamide compounds and their use as herbicides” (BASF SE, priority 2012, published 2017).
# Columns and labels:
# Type in all cases: in vivo
# [1] = tested on: Abutilon theophrasti (velvetleaf); assay: Greenhouse post-emergence treatment of Abutilon theophrasti (velvetleaf); details: application rate 1000 g/ha, scale 0 (no damage) to 100 (complete destruction)
# From the text: (§1) The culture containers used were plastic flowerpots containing loamy sand with approximately 3.0% of humus as the substrate. The seeds of the test plants were sown separately for each species.
# (§2) For the post-emergence treatment, the test plants were first grown to a height of 3 to 15 cm, depending on the plant habit, and only then treated with the active ingredients which had been suspended or emulsified in water. For this purpose, the test plants were either sown directly and grown in the same containers, or they were first grown separately as seedlings and transplanted into the test containers a few days prior to treatment.
# (§3) Depending on the species, the plants were kept at 10-25° C. or 20-35° C. The test period extended over 2 to 4 weeks. During this time, the plants were tended, and their response to the individual treatments was evaluated.
# (§4) Evaluation was carried out using a scale from 0 to 100. 100 means no emergence of the plants, or complete destruction of at least the aerial moieties, and 0 means no damage, or normal course of growth. A good herbicidal activity is given at values of at least 70 and a very good herbicidal activity is given at values of at least 85.
# [2] = tested on: Amaranthus retroflexus L. (pigweed); assay: Greenhouse post-emergence treatment of Amaranthus retroflexus L. (pigweed); details: application rate 1000 g/ha, scale 0 (no damage) to 100 (complete destruction)
# From the text: as §1, §2, §3, §4
# [3] = tested on: Amaranthus retroflexus L. (pigweed); assay: Greenhouse pre-emergence treatment of Amaranthus retroflexus L. (pigweed); details: application rate 1000 g/ha, scale 0 (no damage) to 100 (no emergence/complete destruction)
# From the text: as §1
# (§5) For the pre-emergence treatment, the active ingredients, which had been suspended or emulsified in water, were applied directly after sowing by means of finely distributing nozzles. The containers were irrigated gently to promote germination and growth and subsequently covered with transparent plastic hoods until the plants had rooted. This cover caused uniform germination of the test plants, unless this has been impaired by the active ingredients.
# as §3, §4
# [4] = tested on: Abutilon theophrasti (velvetleaf); assay: Greenhouse pre-emergence treatment of Abutilon theophrasti (velvetleaf); details: application rate 1000 g/ha, scale 0 (no damage) to 100 (no emergence/complete destruction)
# From the text: as §1, §5, §3, §4
# [5] = tested on: Echinochloa crus-galli (barnyard grass); assay: Greenhouse post-emergence treatment of Echinochloa crus-galli (barnyard grass); details: application rate 1000 g/ha, scale 0 (no damage) to 100 (complete destruction)
# From the text: as §1, §2, §3, §4
SMILES,damage [%] [1],damage [%] [2],damage [%] [3],damage [%] [4],damage [%] [5]
Cn1ncnc1NC(=O)c1c(F)ccc(Cl)c1Cl [I.A-1441],75%,100%,100%,,
"CSc1c(Cl)cc(F)c(C(=O)Nc2nnnn2C)c1Cl [V.A-1442, 2,4-dichloro-6-fluoro-3-methylsulfanyl-n-(1-methyltetrazol-5-yl)benzamide]",100%,100%,,100%,
Cn1ncnc1NC(=O)c1cc(F)c(Cl)cc1Cl [I.A-5],75%,85%,,,90%
"Cn1ncnc1NC(=O)c1c(F)cc(Cl)c(S(C)(=O)=O)c1Cl [I.A-41, 2,4-dichloro-6-fluoro-3-methylsulfonyl-n-(2-methyl-1,2,4-triazol-3-yl)benzamide]",100%,100%,,95%,
Cn1ncnc1NC(=O)c1c(F)cc(Cl)cc1Cl [I.A-1],100%,100%,80%,,
"Cn1nnnc1NC(=O)c1c(F)cc(Cl)c(S(C)(=O)=O)c1Cl [V.A.-41, 2,4-dichloro-6-fluoro-3-methylsulfonyl-n-(1-methyltetrazol-5-yl)benzamide]",100%,100%,100%,,
Cn1nnnc1NC(=O)c1cc(F)c(Cl)cc1Cl [V.A-5],100%,100%,100%,,
